Molecular target: T1, NS5B from the BK strain (genotype 1b) (Hepatitis C virus genotype 1b, UniProt P26663)
T1 construct: NS5B from the BK strain (genotype 1b) is expressed in E. coli as a protein in which the 21 C-terminal amino acids are replaced; made in house; host or cells: E. coli
Assay: Hepatitis C polymerase inhibition, NS5B BK strain, 33P-GTP filter assay
Format: biochemical
Conditions: Table 1A; for IC50: NS5B BK strain, read-out: HCV pol BK IC50; for inhibition at 20 µM: 20 μM compound, read-out: HCV pol % inh at 20 μM
Source text: The ability of the compounds of the present invention to inhibit Hepatitis C Polymerase was established by the following experimental procedure: • NS5B from the BK strain (genotype 1b) is expressed in E. coli as a protein in which the 21 C-terminal amino acids are replaced with a short linker and a hexahistidine tag ([…]). The purified protein is mixed with radioactive nucleotides and allowed to replicate a heteropolymeric RNA substrate, primed by an endogenous short hairpin, resulting in an approximately 760 nt product. The radioactive product is captured on a filter and quantitated after removal of the unincorporated nucleotides.
Reagents: • 10 mM uridine 5′-triphosphate (UTP) (Promega # p116B) • 10 mM adenine 5′-triphosphate (ATP) (Promega # p113B) • 10 mM cytidine 5′-triphosphate (CTP) (Promega # p114B) • 10 mM guanine 5′-triphosphate (GTP) (Promega # p115B) • Bovine Serum Albumin (BSA) 10 mg/ml NEB (100× at 10 mg/ml) #007-BSA • RNasein (Promega #N251X) 40 U/μl • A-[33P]-GTP (NEN-easytides NEG/606H 3000 Ci/mmol, 370 MBq/ml, 10 mCi/ml) • Falcon polypropylene 96 well plates (Becton Dickinson # 351190) • Millipore Multiscreen assasy system-96 well-filtration plate #MADE NOB 50 • Optiphase Supermix (Wallac) formulated by Fisher • Millipore Multiscreen liner for use in microbeta 1450-106 casette [(Wallac) Perkin Elmer #1450-433] • 1 M(N-[2-hydroxyethyl]piperazine-N′-[2-ethanesulfonic acid]) (HEPES), pH 7.3 • Amersham Pharmacia Biotec (US16924-500 ml) • 1 M MgCl2 (SIGMA #M1028) • Dithiothreitol (DTT) (solid) (SIGMA #D9779) • RNase free water (GIBCO-BRL #10977-023) • Dimethyl sulfoxide (Aldrich #27685-5) • Basilen Blue (Sigma, B5520) • 0.5M ethylenediaminetetraacetic acid (EDTA), pH 8 (GIBCO-BRL #15575-020) • Dibasic sodium phosphate (7-hydrate) (Na2HPO4.7H2O; Baker#3824-07) • Phosphoric acid (Baker, #0262.02)
Further reagent preparation: • 0.5 M Na Phosphate buffer. Per liter, weigh 134 gr Na2HPO4.7H2O, add water to 900 ml. Adjust pH to 7.0 with phosphoric acid. Top off with water to 1 L. • Dilute nucleotides 1:1000 to 10 μM (GTP and CTP) or 1:100 to 100 μM (ATP and UTP) into RNase free water.
Procedure: • (1) Compounds 10 μl at 10 μg/ml in 15% dimethylsulfoxide (DMSO)
When starting from 100 μg/ml compound stock in […]: • Dispense 5 μl 30% DMSO per well • Dispense 5 μl compound (100 μg/ml) per well.
When starting from 50 μg/ml compound stock in 15% DMSO: • Add 10 μl compound per well. • (2) Enzyme Mix:
Add 20 μl enzyme mix into each well of the assay plate. Incubate compound and enzyme at room temperature for 15 minutes • (3) Template mix—prepare ahead
Spin down a tube of RNA (5 μg/tube stored in 75% ethanol and 0.3 M sodium acetate) in a microcentrifuge for 20 minutes at 4° C. One tube is enough for 1–1.5 plates. Remove as much ethanol from the tube as possible by inverting the tube. Be gentle, pellet RNA may not adhere to the tube. Vacuum dry the RNA. Resuspend the RNA by adding 1 ml of DEPC water, close the cap of the tube tightly. To dissolve RNA, incubate RNA solution on ice for ˜60 minutes and gently vortex. Spin briefly to ensure all RNA solution is down to the bottom of the tube before opening cap. Gently transfer RNA solution into a 5 ml or larger tube. Add another 3 ml of DEPC water (total 4 ml of volume).
Add the following volumes of reagents
Add 20 μl template mix per reaction (i.e. 20 ng of pOF per reaction or ˜3 nM) • (4) Incubate reaction at room temperature (22–25° C.) for 2 hours. • (5) Stop reaction by adding 50 μl of 170 mM EDTA. • Final concentration of EDTA is 85 mM. • (6) Prewet filters of Millipore multiscreen assay plate by adding 200 μl of 0.5 M sodium phosphate buffer, pH 7.0 into each well. Let stand at room temperature for 2–3 minutes. • (7) Place the multiscreen filter plate onto a Millipore Manifold and turn on vacuum to allow buffer to flow through. Turn off vacuum. Transfer 80 μl of the reaction product into each well of the filter plate. Let stand for 2–3 minutes. […]

T1 sequence (P26663 2420-2989): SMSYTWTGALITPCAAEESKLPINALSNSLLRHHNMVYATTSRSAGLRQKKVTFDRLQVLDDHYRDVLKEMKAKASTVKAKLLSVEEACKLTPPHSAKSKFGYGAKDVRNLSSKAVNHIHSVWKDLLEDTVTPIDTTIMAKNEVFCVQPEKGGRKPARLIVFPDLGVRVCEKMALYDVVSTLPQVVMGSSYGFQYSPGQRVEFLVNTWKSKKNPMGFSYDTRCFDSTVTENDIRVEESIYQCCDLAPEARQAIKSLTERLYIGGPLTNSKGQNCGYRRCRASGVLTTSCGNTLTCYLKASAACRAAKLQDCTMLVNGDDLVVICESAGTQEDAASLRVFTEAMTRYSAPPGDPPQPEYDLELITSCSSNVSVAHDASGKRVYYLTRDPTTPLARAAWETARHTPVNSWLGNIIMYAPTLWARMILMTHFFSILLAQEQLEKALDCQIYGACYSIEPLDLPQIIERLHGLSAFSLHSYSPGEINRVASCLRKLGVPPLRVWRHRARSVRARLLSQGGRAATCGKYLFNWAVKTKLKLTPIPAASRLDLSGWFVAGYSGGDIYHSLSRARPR

| Structure (SMILES) | IC50 [µM] | inhibition at 20 µM [%] |
| --- | --- | --- |
| CCCC1(CC(=O)O)OCCc2c1[nH]c1c(C)ccc(C#N)c21 (stereo not drawn) [Example 1, (5-cyano-8-methyl-1-propyl-1,3,4,9-tetrahydro-pyrano[3,4-b]indol-1-yl)acetic acid] | 0.5 | – |
| CCC[C@@]1(CC(=O)O)OCCc2c1[nH]c1c(C)ccc(C#N)c21 [Example 3, [(S)-5-cyano-8-methyl-1-propyl-1,3,4,9-tetrahydropyrano[3,4-b]indol-1-yl]acetic acid] | 2.4 | – |
| CCCC1(CC(=O)O)OCCc2c1[nH]c1c(F)ccc(C#N)c21 (stereo not drawn) [Example 4, (5-cyano-8-fluoro-1-propyl-1,3,4,9-tetrahydro-pyrano[3,4-b]indol-1-yl)acetic acid] | 1 | – |
| CCC[C@@]1(CC(=O)O)OCCc2c1[nH]c1c(F)ccc(C#N)c21 [Example 6, [(S)-5-cyano-8-fluoro-1-propyl-1,3,4,9-tetrahydropyrano[3,4-b]indol-1-yl]acetic acid] | 5.7 | – |
| CCCC1(CC(=O)O)OCCc2c1[nH]c1c(Cl)ccc(Cl)c21 (stereo not drawn) [Example 7, (5,8-dichloro-1-propyl-1,3,4,9-tetrahydro-pyrano[3,4-b]indol-1-yl)acetic acid] | 0.2 | – |
| CCC[C@@]1(CC(=O)O)OCCc2c1[nH]c1c(Cl)ccc(Cl)c21 [Example 9, [(S)-5,8-dichloro-1-propyl-1,3,4,9-tetrahydropyrano[3,4-b]indol-1-yl]acetic acid] | 1.1 | – |
| CCCC1(CC(=O)O)OCCc2c1[nH]c1c(C)cc(F)c(C#N)c21 (stereo not drawn) [Example 10, (5-cyano-6-fluoro-8-methyl-1-propyl-1,3,4,9-tetrahydropyrano[3,4-b]indol-1-yl)acetic acid] | 0.08 | – |
| CCC[C@@]1(CC(=O)O)OCCc2c1[nH]c1c(C)cc(F)c(C#N)c21 [Example 12, [(S)-5-cyano-6-fluoro-8-methyl-1-propyl-1,3,4,9-tetrahydropyrano[3,4-b]indol-1-yl]acetic acid] | 0.6 | – |
| CCC1(CC(=O)O)OCCc2c1[nH]c1cccc(Cl)c21 (stereo not drawn) [Example 13, (5-Chloro-1-ethyl-1,3,4,9-tetrahydropyrano[3,4-b]indol-1-yl)acetic acid] | > 20 | 23 |
| CCCC1(CC(=O)O)OCCc2c1[nH]c1cccc(Cl)c21 (stereo not drawn) [Example 14, (5-Chloro-1-propyl-1,3,4,9-tetrahydropyrano[3,4-b]indol-1-yl)acetic acid] | 11 | 75 |
| CC(C)C1(CC(=O)O)OCCc2c1[nH]c1cccc(Cl)c21 (stereo not drawn) [Example 15, (5-chloro-1-isopropyl-1,3,4,9-tetrahydropyrano[3,4-b]indol-1-yl)acetic acid] | > 20 | 7 |
| C/C=C/CCC1(CC(=O)O)OCCc2c1[nH]c1cccc(Cl)c21 (stereo not drawn) [Example 16, {5-chloro-1-[(3E)-pent-3-enyl]-1,3,4,9-tetrahydropyrano[3,4-b]indol-1-yl}acetic acid] | > 20 | < 5 |
| O=C(O)CC1(c2ccccc2)OCCc2c1[nH]c1cccc(Cl)c21 (stereo not drawn) [Example 17, (5-chloro-1-phenyl-1,3,4,9-tetrahydropyrano[3,4-b]indol-1-yl)acetic acid] | > 20 | < 5 |
| O=C(O)CC1(c2ccc([N+](=O)[O-])cc2)OCCc2c1[nH]c1cccc(Cl)c21 (stereo not drawn) [Example 18, [5-chloro-1-(4-nitrophenyl)-1,3,4,9-tetrahydropyrano[3,4-b]indol-1-yl]acetic acid] | > 20 | < 5 |
| O=C(O)CC1(c2cccc([N+](=O)[O-])c2)OCCc2c1[nH]c1cccc(Cl)c21 (stereo not drawn) [Example 19, [5-chloro-1-(3-nitrophenyl)-1,3,4,9-tetrahydropyrano[3,4-b]indol-1-yl]acetic acid] | > 20 | 6 |
| O=C(O)CC1(c2ccccc2F)OCCc2c1[nH]c1cccc(Cl)c21 (stereo not drawn) [Example 20, [5-chloro-1-(2-fluorophenyl)-1,3,4,9-tetrahydropyrano[3,4-b]indol-1-yl]acetic acid] | > 20 | 21 |
| CCC1(CC(=O)O)OCCc2c1[nH]c1cccc(Br)c21 (stereo not drawn) [Example 21, (5-bromo-1-ethyl-1,3,4,9-tetrahydro-pyrano[3,4-b]indol-1-yl)acetic acid] | > 20 | 58 |
| CCCC1(CC(=O)O)OCCc2c1[nH]c1cccc(Br)c21 (stereo not drawn) [Example 22, (5-bromo-1-propyl-1,3,4,9-tetrahydropyrano[3,4-b]indol-1-yl)acetic acid] | – | 70 |
| CC(C)C1(CC(=O)O)OCCc2c1[nH]c1cccc(Br)c21 (stereo not drawn) [Example 23, (5-bromo-1-isopropyl-1,3,4,9-tetrahydropyrano[3,4-b]indol-1-yl)acetic acid] | > 20 | 12 |
| C/C=C/CCC1(CC(=O)O)OCCc2c1[nH]c1cccc(Br)c21 (stereo not drawn) [Example 24, {5-bromo-1-[(3E)-pent-3-enyl]-1,3,4,9-tetrahydropyrano[3,4-b]indol-1-yl}acetic acid] | > 20 | < 5 |
| O=C(O)CC1(c2ccoc2)OCCc2c1[nH]c1cccc(Br)c21 (stereo not drawn) [Example 25, [5-bromo-1-(3-furyl)-1,3,4,9-tetrahydropyrano[3,4-b]indol-1-yl]acetic acid] | > 20 | 33 |
| O=C(O)CC1(c2ccccc2)OCCc2c1[nH]c1cccc(Br)c21 (stereo not drawn) [Example 26, (5-bromo-1-phenyl-1,3,4,9-tetrahydropyrano[3,4-b]indol-1-yl)acetic acid] | > 20 | < 5 |
| COc1cc(C2(CC(=O)O)OCCc3c2[nH]c2cccc(Br)c32)cc(OC)c1OC (stereo not drawn) [Example 27, [5-bromo-1-(3,4,5-trimethoxyphenyl)-1,3,4,9-tetrahydropyrano[3,4-b]indol-1-yl]acetic acid] | > 20 | 3 |
| O=C(O)CC1(c2ccc([N+](=O)[O-])cc2)OCCc2c1[nH]c1cccc(Br)c21 (stereo not drawn) [Example 28, [5-bromo-1-(4-nitrophenyl)-1,3,4,9-tetrahydropyrano[3,4-b]indol-1-yl]acetic acid] | > 20 | < 5 |
| O=C(O)CC1(c2cccc([N+](=O)[O-])c2)OCCc2c1[nH]c1cccc(Br)c21 (stereo not drawn) [Example 29, [5-bromo-1-(3-nitrophenyl)-1,3,4,9-tetrahydropyrano[3,4-b]indol-1-yl]acetic acid] | > 20 | < 5 |
| O=C(O)CC1(c2ccccc2F)OCCc2c1[nH]c1cccc(Br)c21 (stereo not drawn) [Example 30, [5-bromo-1-(2-fluorophenyl)-1,3,4,9-tetrahydropyrano[3,4-b]indol-1-yl]acetic acid] | > 20 | < 5 |
| CCCC1(CC(=O)O)OCCc2c1[nH]c1cccc(-c3ccccc3)c21 (stereo not drawn) [Example 31, (5-phenyl-1-propyl-1,3,4,9-tetrahydropyrano[3,4-b]indol-1-yl)acetic acid] | > 20 | 12 |

From patent US7217730B2, “Method for the use of pyranoindole derivatives to treat infection with Hepatitis C virus” (Wyeth, priority 2002, dated 2007)
